In patent publication US10653691B2, “Method of promoting remyelination” (Case Western Reserve University, priority 2013, dated 2020):

Assays:
MOG35-55 EAE mouse model = test: External validation of MOG35-55 EAE at an independent contract laboratory; format: in vivo; conditions: 10 mg/kg, n=12 mice per group
Method: EAE was induced by immunizing 10-week-old C57BL/6 female mice with […] injection of […] complete Freund's adjuvant emulsion (Hooke Laboratories). One hour after immunization, mice were given 100 ng of pertussis toxin by 100 μl intraperitoneal injection. A second dose of pertussis toxin was administered the next day. EAE onset was monitored daily and scored using a clinical scale where 0 represented no abnormality; 1, limp tail; 2, limp tail and hind limb weakness; 3, hind limb paralysis; 4, hind limb paralysis and forelimb weakness; and 5, moribund. […] Once mice reached peak of disease ˜day 15; clinical score=3) they were randomized into treatment groups, and drug or vehicle (DMSO in saline) was administered intraperitoneally daily for 10 days (n=12-16 mice per group). […] Experimenters were blinded to the identity of the treatments and animals were scored daily. Cumulative disease scores for each animal were calculated during the treatment period, and a two-tailed t-test compared drug—with vehicle-treated groups. The extent of recovery for each animal was calculated as the difference between the peak disease score and the score at the end of each experiment, and a two-tailed t-test was used to compare each treatment with vehicle. […]

[1] = system: PLP139-151 EAE mouse model; test: PLP139-151-induced relapsing remitting EAE; format: in vivo
Text: Six- to seven-week-old female SJL/J mice were induced with PLP139-151 as for ex vivo recall assays. Mice were allowed to progress to disease onset at day 13 before being randomized into treatment groups (n=10 mice per group). […] This period fully encompassed the acute phase of disease onset followed by remission and the primary disease relapse. Treatments were blinded to the experimenters performing the assays.

Row | SMILES | efficacy to reduce disease severity, independent validation (MOG35-55 EAE mouse model) | efficacy in reducing disease severity ([1]; daily i.p. day 13 to 29, clobetasol 2 mg/kg, miconazole 10 mg/kg, benztropine 10 mg/kg) | T cells within the spleen ([1]; day 29, 2 mg/kg)
1 | Clc1ccc(COC(Cn2ccnc2)c2ccc(Cl)cc2Cl)c(Cl)c1 (stereo not drawn) [miconazole] | independently validated the preclinical efficacy | – | –
2 | C[C@H]1C[C@H]2[C@@H]3CCC4=CC(=O)C=C[C@]4(C)[C@@]3(F)[C@@H](O)C[C@]2(C)[C@@]1(O)C(=O)CCl [clobetasol] | – | showed efficacy in reducing disease severity | severe reduction of T cells within the spleen
